Measured values published in PMC9666555, “Genuine selective caspase-2 inhibition with new irreversible small peptidomimetics” (Cell Death & Disease, 2022).
Non-standard residues stand in square brackets, D forms with d. Residues, ends and D or L forms follow the SMILES beside them. ξ: configuration not given here. *: point of attachment. ξTHIQ1CO(6-Me) = Cc1ccc2c(c1)CCNC2C(=O)O; X1 = O=C(O)CC(N*)C(=O)COc1c(F)cccc1F; Quinaldoyl = O=C(c1ccc2ccccc2n1)*

How the values were obtained:
[1] = test system: Casp2-S1P-SREBP2 activation pathway in HEK 293 cells; assay: Casp2-dependent S1P cleavage and SREBP2 activation in transfected HEK 293 cells (WB); conditions: 10 µM, 16 h
Description: To test SREBP processing, HEK 293 (ATCC® CRL-1573) cells were plated at a density of 0.5 × 10^5 per well (6-well plates). The next day, 1 μg of each cDNAs were transfected using lipofectamine 3000 (Thermo Fisher Scientific, MA) according to the manufacturer’s instruction. cDNAs used were empty vector (EV), Casp2-HA, PIDD-Flag, RAIDD-His, Myc-S1P, and V5-SREBP2. After 4 h, cells were incubated in DMEM/F12 medium supplemented with indicated Casp2 inhibitors (10 μM) for 16 h. Whole-cell lysates were prepared in lysate buffer (150 mM Tris-HCl, pH 7.4, 10% sodium-deoxycholate, 100 mM NaCl, 100 mM EDTA, 100 mM PMSF, 200 mM NaF, 100 mM Na3VO4, and a mixture of protease inhibitors). […] Equal quantities of proteins were subjected to immunoblot (WB) analysis with anti-Flag (#F7425 Sigma-Aldrich), anti-HA (#1867431, Roche), anti-Casp2 (#ALX-804-356, 11B4, Enzo Life Sciences), anti-V5 monoclonal antibody (#13202, Cell Signaling Technology), anti-Casp3 (#9661, #9662, #9664, Cell Signaling Technologies), and anti-HSP90 (#sc-101494, Santa Cruz Technologies).
HEK 293 cells were transfected with indicated plasmids in order to overexpress SREBP2, S1P, RAIDD, PIDD1, and Casp-2. […] HEK 293 cells were transfected with the indicated plasmids. […] Then, whole cell extracts (WCL) were prepared and subjected to WB analysis to detect Casp2 (through HA tag), RAIDD (through 6HIS tag), and PIDD1, PIDD1-C, PIDD1-CC (through Flag tag).

Thrombin = target: T1, Thrombin (Homo sapiens, UniProt P00734); assay: Non-caspase enzyme assay, Thrombin; type: biochemical; conditions: concentrations up to 10 µM
T1 construct: The human active Plasmin, Thrombin, and Trypsin; purchased Sigma-Aldrich
Description: (§1) Stock solutions were stored at −80 °C. […]
(§2) Non-caspase enzyme assays
(§3) The human pro- kallikrein-1 (pro-hK1) was activated in a buffer containing: Tris-HCl 50 mM, CaCl2 10 mM, NaCl 150 mM, Brij-35 0,05% pH 7,5. Human pro-kallikrein-6 and -8 (pro-hK6 and 8 were activated using Lysyl-endopeptidase (Wako- BioProducts®) at a 1/500 weight ratio, in a buffer containing 50 mM Tris and 0,05% Brij-35 (pH 8). Kinetics using non-caspase enzymes for selectivity studies were done according to the following conditions.
(§4) Enzymes Substrates Buffers
(§5) Cathepsine B (0.2 nM) z-RR-AMC 20 µM Acétate de sodium 0,1 M; EDTA 1mM ; […]
(§6) Cathepsine L (1.2 nM) RLR-AMC 25 µM Acétate de sodium 0,1 M; EDTA 1mM ; […]
(§7) Cathepsine D (0.1 nM) Mca-Gly-Ly s-Pro-Ile-Leu-Phe-Phe- Citrate de Sodium 0,1 M; EDTA 2 mM ; Arg-Leu-Lys(Dnp)-D-Arg-NH2 10 µM Brij-35 0,01%; pH 4 hK1 (4 nM) Boc-VPR-AMC 100µM Tris 50mM; Citrate 1M; Brij-35 0.05%; pH7 hK6 (2 nM ) Boc-QAR -AMC 100 µM Tris 50mM; Citrate 1M; Brij-35 0.05%; pH7 hK8 (1 nM) Boc-VPR-AMC 100µM Tris 50mM; Citrate 1M; Brij-35 0.05%; pH7
(§8) Thrombine (10 mU/mL) Boc-VPR-AMC 100µM Tris 50mM; Citrate 1M; Brij-35 0.05%; pH7 Plasmine (4 nM ) Boc-QAR -AMC 100µM Tris 50mM; Citrate 1M; Brij-35 0.05%; pH7 Trypsine (0.1 nM) Boc-QAR -AMC 100µM Tris 50mM; Citrate 1M; Brij-35 0.05%; pH7

Cathepsin-B = Cathepsin-B (Homo sapiens, UniProt P07858); assay: Non-caspase enzyme assay, Cathepsin-B; type: biochemical; conditions: concentrations up to 10 µM
Description: as §1, §2, §3, §4, §5, §6, §7, §8

HeLa cells = assay: Vincristine-induced HeLa cell death (propidium iodide, flow cytometry); type: cell-based, human; conditions: indicated doses, 1 h pretreatment, 20 nM vincristine 44 h
Description: HeLa cells (obtained from ATCC) were cultured in Dulbecco’s Modified Eagle Medium (DMEM, High Glucose, GlutaMAX™, Pyruvate) supplemented with antibiotics and 10% fetal calf serum (FCS) (Gibco, Life Technologies) and maintained in T75 Flasks at 1 × 10^6 cells per flask. Twenty-four hours before treatments, HeLa cells were transferred to 6-well plates (8 × 10^4 cells/well). The lymphoblastoid cell line Molt4cl8 was a gift from Dr. Bernard Krust (Inserm, University Paris 5) and was cultured in RPMI 1640 Glutamax medium supplemented with Hepes, antibiotics, and 10% FCS. HEK293 cells were obtained from ATCC (CRL-1573) and cultured in DMEM with Glutamax and 25 mM glucose (Life Technologies) supplemented with 10% FCS and antibiotics. For cell death induction, the following agents were added to cell cultures: Vincristine (Sigma) and Panobistat (LBH589; Selleck). Cell death was analyzed using fluorescence microscopy (Axio-observer Z1, Zeiss; equipped with CCD camera CoolsnapHQ2, Ropert Scientific) and cytofluorometry (MACSQuant® VYB; Miltenyi Biotec, Bergisch Gladbach, Germany) after labeling with propidium iodide (1 µg/mL; 10 min; 37 °C; Life Technologies) and Hoechst 33342 (1 µg/mL; 5 min; RT; Sigma).
Fig. 2 q33 and h33 are protective against the cytocidal effect of Vincristine. a Vincristine induces HeLa cell death. Cells were incubated for 44 h at 37 °C with 20 nM Vincristine (VCR), then incubated with propidium iodide at 2 μg/mL for 10 min and analyzed by flow cytometry to quantify plasma membrane permeabilization. Histograms show fluorescence intensity detected by flow cytometry (one representative experiment) in the presence (VCR) or Absence (Co.) of Vincristine. % of propidium iodide-positive cells are indicated for both conditions. b Dose–response of Vincristine-induced cell death. HeLa cells were incubated and treated as in (a) with the indicated doses of Vincristine (VCR) and analyzed by flow cytometry. […] Representative fluorescence microscopy micrographs of cells treated for 44 h with 20 nM vincristine (VCR) or not (Co.) and stained with Hoechst 33342. Vincristine induces progressive nuclear changes with first condensed nuclei (arrows) and then apoptotic bodies (dashed arrow). d Broad-spectrum irreversible caspase inhibitors prevent vincristine-induced cell death. HeLa cells were pretreated for 1 hr with the indicated broad-spectrum irreversible caspases inhibitors (z-VAD(OMe)-fmk at 30 μM, Q-VD-OPh 30 μM, Emricasan 10 μM, or the negative control Q-VE-OPh 30 μM), then treated with vincristine as in panel (a), and analyzed by flow cytometry. Histograms show the mean ± SD of 3 independent experiments (***p value < 0.001). e Effect of the reversible Caspase-2 inhibitors q33 and h33 against vincristine-induced cell death. HeLa cells were pretreated for 1 h with the indicated doses of q33 or h33, then treated with vincristine as in panel a, and analyzed by flow cytometry. Histograms show the mean ± SD of three independent experiments (*p value < 0.1). TEXT PRINTED IN THE PICTURE: (a) VCR: 39,5 % DOUBTS OF THE COPYIST ABOUT THIS PICTURE: Panel a: the picture prints no measure beside "39,5 %" and "4.1%". I assigned 39,5 % to VCR only because it stands by the grey VCR peak. / Panel a: "4.1%" seems to belong to the untreated control (Co.). That is not a substance, so it is left out.
Fig. 5 LJ2 inhibits cell death induced by microtubule destabilization and hydroxamic acid-based deacetylase (HDAC) inhibition. a Effect of the irreversible Caspase-2 inhibitors LJ2 against vincristine-induced cell death. HeLa cells were pretreated for 1 h with the indicated doses of LJ2, Q-VD-OPh, or Q-LETD-OPh, then treated with vincristine (VCR) as in Fig. 2, then incubated with propidium iodide at 2 μg/mL for 10 min and analyzed by flow cytometry. Histogram data are mean ± SD (n = 3, *p value < 0.01). b Effect of Caspases-inhibitors against Panobistat (LBH589)-induced cell death. […]

| SMILES | S1P cleavage [1] | SREBP2 activation [1] | impact on RAIDD, PIDD1, and Casp2 expression [1] | effect on Thrombin (Thrombin) | effect on Cathepsin-B (Cathepsin-B) | effect against vincristine-induced cell death (HeLa cells) |
| --- | --- | --- | --- | --- | --- | --- |
| CC(C)[C@H](NC(=O)c1ccc2ccccc2n1)C(=O)N[C@@H](CC(=O)O)C(=O)N[C@H](C(=O)N1CC[C@H](CC(C)(C)C)[C@@H]1C(=O)NC(CC(=O)O)C(=O)COc1c(F)cccc1F)C(C)C (stereo partly drawn) [LJ3a] | abolished | abolished | no significant impact | very limited or no effect | very limited or no effect |  |
| Cc1ccc2c(c1)CCN(C(=O)[C@@H](NC(=O)[C@H](CC(=O)O)NC(=O)[C@@H](NC(=O)c1ccc3ccccc3n1)C(C)C)C(C)C)C2C(=O)NC(CC(=O)O)C(=O)COc1c(F)cccc1F (stereo partly drawn) [LJ2, Quinolin-2-carbonyl-VDV-(methyl-isoquinolyl)-D-CH2-O(2,6F2)Ph] (Quinaldoyl-VDV[ξTHIQ1CO(6-Me)]-X1) |  |  |  |  |  | significantly prevented Vincristin-induced cell death in a dose-dependent manner |
